Measurements as given in patent US20250154288A1, “CYTOTOXICITY TARGETING CHIMERAS FOR C-C CHEMOKINE RECEPTOR 2-EXPRESSING CELLS” (GLAXOSMITHKLINE INTELLECTUAL PROPERTY DEVELOPMENT LIMITED, priority 2022, published 2025).

Tests used:
[1] = test system: CCR2 expressing cells (CD11b+Ly6c+ Hi) in peripheral blood; test: In Vivo Depletion Assay (flow cytometry of peripheral blood); design: species or system Human CCR2 (hCCR2) knock-in mice; details: hCCR2 knock-in mice; IV 0.1 mpk compound + 10 mpk anti-cotinine antibody (mouse IgG2a Fc); peripheral blood at 48 hr
Experimental: (§1) Human CCR2 (hCCR2) knock-in mice (057 background) were dosed intravenously with a PBS solution containing a compound of Formula (I) to measure depletion of CCR2 expressing cells in peripheral blood. Peripheral blood from IV dosed mice was also analyzed to determine PK properties of the ARM compounds of Formula (I).
Stock solution preparation: Stock solutions of compounds of Formula (I) were prepared at 20 mg/mL and 100 mg/mL in DMSO for PK/PD and dose tolerability studies respectively. Stock solutions were stored at −20° C. until further usage.
Formulations preparation: On the day of experiment, the stock solution of the compound of Formula (I) was removed from storage at −20° C. and thawed at room temperature. Anti-cotinine antibody having a heavy chain sequence of SEQ ID NO: 13 and a light chain sequence of SEQ ID NO: 14 (rabbit variable region sequence with mouse IgG2a Fc domain), if required was removed from storage at −80° C. and thawed at room temperature. Antibody vials were immediately transferred into wet ice after thawing. Compounds of Formula (I) were further diluted in DMSO as per experimental requirements.
Formulation composition: The formulation composition was Saline: DMSO: PBS. Saline was added based on the quantity required and then stock solution of the compound of Formula (I) prepared in DMSO, followed by addition of antibody in PBS. Formulations were incubated at room temperature for 30 minutes before administration to the mouse. DMSO was used at 1 to 2% (v/v) in the final formulation.
(§2) Administration to Animal: Solution formulation of antibody and compound of Formula (I) was injected (bolus injection) to the restrained mouse in the right/left lateral tail vein. Animals were dosed with 0.1 milligram per kilogram (mpk) of the compound of Formula (I) and 10 mpk of the anti-cotinine antibody.
(§3) Terminal bleeding at end of experiment (48 hr): Approximately 250 μL of blood in K2EDTA tube and approximately 250 μL of blood in SST (serum separation tube) was collected from each mouse through retro-orbital bleeding under deep isoflurane anesthesia. After bleeding, each mouse was sacrificed by cervical dislocation. The blood distribution at termination was determined as follows: • For PK: 50 μL of K2EDTA blood was transferred to another tube for PK • Flow cytometry: Remaining blood (˜200 μL) was used for flow cytometry analysis. • For serum collection: serum separator tubes (BD) were centrifuged at 4° C., 5000 rpm for 15 minutes. Approximately 100 μL serum was separated and stored at −80° C. for further usage. • Blood drug concentration: Samples collected at the various timepoints (0.25 hr, 2 hr, 24 and 48 hr) were analyzed to determine blood drug concentration.
CCR2 depletion in peripheral blood was determined by flow cytometry. Briefly, peripheral blood was collected from all animals at the end of study termination and processed. Blood samples were lysed using 1×RBC Lysis buffer and the resulting cell pellet was washed twice in FACS buffer (HBSS containing 5% FBS). Cells were subjected to Fc blocking using mouse Fc block from Biolegend (Trustain, anti-mouse CD16/32, Cat: 101319) to block non-specific binding followed by surface staining for immune markers (CD45, CD3, CD11b, Ly6C, human CCR2). Surface staining was done for 30 minutes in ice and cells were washed twice to remove unbound antibodies. Cells were stained with 7AAD to determine viability and acquired on BD FACSVerse flow cytometer. Appropriate FMO controls and single-color controls were included in the experiment for gating and compensation respectively.
Percent depletion of CD11b+Ly6c+ Hi cells and CCR2 expression for the different treatment groups was determined. The results are shown below in Table 4 and are reported as percent (%) depletion of CCR2 expressing cells.

[2] = Blood drug concentration analysis (LC-MS/MS) in In Vivo Depletion Assay; details: human CCR2 (hCCR2) knock-in, 057 background, mouse, whole blood, hCCR2 knock-in mice, IV 0.1 mpk compound + 10 mpk anti-cotinine antibody, 48 hours post-dose, read-out: Exposure of Compound of Formula (I) 48 hours post-dose
Experimental: as §1, §2
Collection of Blood for PK: Blood was collected at time points 0.25 hour, 2 hours, and […] following administration (50 μL/time point) through retro-orbital bleeding under mild isoflurane anesthesia.
as §3
Drug concentration in blood samples was determined by an LC-MS/MS-based bioanalytical method developed at Syngene. Samples were analyzed on Q-Trap, API-5500 LC-MS/MS system coupled with Exion UHPLC system from SCIEX, USA operated in multiple reaction monitoring mode employing electrospray ionization technique in positive polarity. Analyte and internal standard peaks were resolved on Synergi Polar, 75×2.0 mm, 4μ column using mobile phase 10 mM Ammonium acetate in Milli-Q water as phase A and 0.1% Formic acid in acetonitrile as Phase B. Gradient elution was performed with initial composition 95% Phase A at 0.0 min, holding it for 0.2 minutes, ramping to 5% by 1.0 minute, keeping the same for next 0.5 minutes and coming back to 95% by 1.6 minutes. The total run time was 2 minutes.
Working dilutions for calibration curve and quality control standards were prepared by serially diluting 20 mg/mL stock solution with DMSO. Spiked concentrations for calibration curve in the whole blood ranged from 1 ng/mL to 1000 ng/mL. The working solution of internal standard (Verapamil, 25 ng/mL) was prepared in acetonitrile. 10 μL of the study sample and calibration curve, quality control, and blank whole blood samples were aliquoted in 96 deep well plates for processing. 10 μL of Milli-Q water was added to all the samples and briefly vortexed to initiate complete hemolysis. 10 μL of 20 mM dithiothreitol (OTT) was added to all the samples and incubated for 30 minutes at 37° C. The addition of DTT enhanced the recovery of ARM compounds of Formula (I) from the biological matrix. 300 μL of working internal standard solution was added to all samples except total blank and wash samples, where 300 μL of acetonitrile was added. All the samples were vortex mixed for 5 minutes, followed by centrifugation at 4000 rpm for 10 minutes at 4° C. Supernatants were transferred to the loading plate and injected 3 μL to LC-MS/MS system for analysis. The results are shown below in Table 4 and are reported as compound exposure 48 hours post-dose

[3] = biological target: T1, CHOK1 cells engineered to overexpress human CCR2 (Homo sapiens, UniProt P41597); test: Antibody Dependent Cellular Cytotoxicity (ADCC) Reporter Assay; assay type: cell-based; details: with anti-cotinine antibody (human IgG1 Fc, S239D/I332E); Jurkat FcγRIIIa NFAT-luciferase reporter cells; average if several runs; read-out: ADCC Reporter Assay pEC50 (converted)
T1 construct: expressed in transfected cells; host or cells: CHOK1
Experimental: An antibody dependent cellular cytoxocity reporter assay was conducted using the following four assay components: (i) ARM compound of Formula (I) targeting CCR2 (concentrations ranging from 1 pM to 10 μM) (ii) anti-cotinine antibody having a heavy chain sequence of SEQ ID NO: 11 and a light chain sequence of SEQ ID NO: 12 (rabbit variable region with human IgG1 Fc domain containing a DE mutation (S239D/I332E)) (concentrations ranging from 0.01 μg/mL to 200 μg/mL); (iii) target cells: CHOK1 cells engineered to overexpress either human CCR2 (typically 1000-20,000 cells per well) and (iv) reporter cells: Jurkat cells engineered to express FcγRIIIa with the reporter gene luciferase under the control of the NFAT promoter (typically 3000-75,000 cells per well). Reagents were combined in a final volume of 20 μL in a 384-well tissue culture treated plate. All four assay components were incubated together for about 12-18 hours. Thereafter, BioGlo Detection reagent (Promega) was added to the wells to lyse the cells and provide a substrate for the luciferase reporter protein. Luminescence signal was measured on a microplate reader and signal:background was calculated by dividing the signal of a test well by the signal obtained when no heterobivalent compound of Formula (I) was added. EC50 calculations were done using Graphpad Prism Software, specifically a nonlinear regression curve fit (Y=Bottom+(Top−Bottom)/(1+10 ^((Log EC50−X)*HillSlope))).
ARMs compounds of Formula (I) of the invention were tested for ADCC activity in the above assay in or more experimental runs and the results are shown in Table 3 below. Potency of the compounds of Formula (I) of the invention is reported as a pEC50 value. The pEC50 value is the negative log of the EC50 value, wherein the EC50 value is the half maximal effective concentration measured in molar (M). For compounds tested in more than one experimental run, the pEC50 value is reported as an average.

Structure (SMILES) | % Depletion of CCR2 expressing cells [1] [%] | concentration at 48 h [2] [ng/mL] | EC50 [3] [nM]
CO[C@@H]1COCC[C@@H]1N[C@@H]1CC[C@@](C(=O)N2CCc3nc(CCCCNC(=O)[C@H]4CC[C@H](NC(=O)CCCO[C@H]5CC[C@H](OCCNC(=O)[C@H]6CC(=O)N(C)[C@@H]6c6cccnc6)CC5)CC4)c(C(F)(F)F)cc3C2)(C(C)C)C1 [Example 12, (2S,3S)-N-(2-(((1R,4S)-4-(4-(((1r,4R)-4-((4-(6-((1S,3R)-1-Isopropyl-3-(((3S,4S)-3-methoxytetrahydro-2H-pyran-4-yl)amino)cyclopentane-1-carbonyl)-3(trifluoromethyl)-5,6,7,8-tetrahydro-1,6-naphthyridin-2-yl)butyl)carbamoyl)cyclohexyl)amino)-4oxobutoxy)cyclohexyl)oxy)ethyl)-1-methyl-5-oxo-2-(pyridin-3-yl)pyrrolidine-3 carboxamide] | 95.4 | 33.3 | 0.631
CO[C@@H]1COCC[C@@H]1N[C@@H]1CC[C@](CCCNC(=O)[C@H]2CC[C@H](NC(=O)CCCO[C@H]3CC[C@@H](OCCNC(=O)[C@H]4CC(=O)N(C)[C@@H]4c4cccnc4)CC3)CC2)(C(=O)N2CCc3ncc(C(F)(F)F)cc3C2)C1 [Example 5, (2S,3S)-N-(2-(((1S,4R)-4-(4-(((1S,4R)-4-((3-((1S,3R)-3-(((3S,4S)-3-Methoxytetrahydro-2H-pyran-4-yl)amino)-1-(3-(trifluoromethyl)-5,6,7,8-tetrahydro-1,6-naphthyridine-6-carbonyl)cyclopentyl)propyl)carbamoyl)cyclohexyl)amino)-4-oxobutoxy)cyclohexyl)oxy)ethyl)-1-methyl-5-oxo-2-(pyridin-3-yl)pyrrolidine-3-carboxamide] | 98.41 | 95.4 | 0.158
